Reference: patent US20260374773A1, “MULTI-CYCLIC IRAK AND FLT3 INHIBITING COMPOUNDS AND USES THEREOF” (CHILDREN'S HOSPITAL MEDICAL CENTER, priority 2022, published 2026)
pKd: −log10 of the molar value.

biological target: T1, FLT3 (Homo sapiens, UniProt P36888); experiment: DiscoverX KINOMEscan active site-directed competition binding, FLT3; conditions: Table 12; no ATP
T1 sequence (P36888 27-993): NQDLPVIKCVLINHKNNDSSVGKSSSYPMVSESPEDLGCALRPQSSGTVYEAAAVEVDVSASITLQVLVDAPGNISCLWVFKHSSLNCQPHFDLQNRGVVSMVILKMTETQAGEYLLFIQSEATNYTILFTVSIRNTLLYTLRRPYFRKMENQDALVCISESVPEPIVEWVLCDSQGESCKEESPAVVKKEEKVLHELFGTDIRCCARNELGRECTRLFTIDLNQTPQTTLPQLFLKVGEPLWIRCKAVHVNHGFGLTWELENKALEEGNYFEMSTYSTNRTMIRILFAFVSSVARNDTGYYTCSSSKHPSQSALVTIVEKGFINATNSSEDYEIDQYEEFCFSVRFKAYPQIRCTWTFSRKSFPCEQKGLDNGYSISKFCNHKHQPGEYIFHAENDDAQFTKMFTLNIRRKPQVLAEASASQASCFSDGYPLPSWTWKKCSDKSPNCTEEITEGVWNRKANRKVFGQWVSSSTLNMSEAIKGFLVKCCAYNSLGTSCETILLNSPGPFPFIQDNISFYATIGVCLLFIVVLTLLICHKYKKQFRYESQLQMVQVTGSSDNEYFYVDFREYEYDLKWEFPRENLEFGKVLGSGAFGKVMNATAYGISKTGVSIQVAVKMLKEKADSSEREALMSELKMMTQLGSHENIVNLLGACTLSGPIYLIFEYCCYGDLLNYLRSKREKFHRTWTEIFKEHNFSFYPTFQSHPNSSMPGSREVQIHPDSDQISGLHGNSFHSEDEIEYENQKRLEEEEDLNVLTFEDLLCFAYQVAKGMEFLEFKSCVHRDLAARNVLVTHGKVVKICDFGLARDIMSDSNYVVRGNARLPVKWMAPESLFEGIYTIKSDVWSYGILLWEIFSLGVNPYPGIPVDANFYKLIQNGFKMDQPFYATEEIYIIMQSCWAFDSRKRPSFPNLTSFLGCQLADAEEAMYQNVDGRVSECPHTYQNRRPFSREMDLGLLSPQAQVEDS
Description: (§1) Kinase binding data were obtained for various exemplary compounds prepared according to Examples 1-8 using the DiscoverX KINOMEscan® active site-directed competition binding site-directed assay protocol described below. […] As a result, the data report thermodynamic interaction affinities (Kd values), rather than IC50 values that are dependent on ATP concentrations. The assay uses a DNA-tagged version of the protein kinase, and an immobilized ligand bound to a solid support. Compounds that directly or indirectly prevent kinase binding to the immobilized ligand reduce the amount of kinase captured on the solid support, which is detected using an ultra-sensitive qPCR method. Affinity constants reported from the assay have been reported to be independent of the immobilized ligand used that is coupled to the solid support (See supplemental information in Fabian, M. A. et. al., (2005) Nat. Biotechnol. 23, 329-336; Wodicka, L. M. et. al., (2010) Chem. Biol. 17, 1241-1249.)
Kinase-tagged T7 phage strains were prepared in an E. coli host derived from the BL21 strain. E. coli were grown to log-phase and infected with T7 phage and incubated with shaking at 32 °C until lysis. The lysates were centrifuged and filtered to remove cell debris. The remaining kinases were produced in HEK-293 cells and subsequently tagged with DNA for qPCR detection. Streptavidin-coated magnetic beads were treated with biotinylated small molecule ligands for 30 minutes at room temperature to generate affinity resins for kinase assays. The liganded beads were blocked with excess biotin and washed with blocking buffer (SeaBlock (Pierce), 1% BSA, 0.05% Tween 20, 1 mM DTT) to remove unbound ligand and to reduce non-specific binding. […] Test compounds were prepared as 111x stocks in 100% DMSO. Kds were determined using an 11-point 3-fold compound dilution series with three DMSO control points. All compounds for Kd measurements are distributed by acoustic transfer (non-contact dispensing) in 100% DMSO. The compounds were then diluted directly into the assays such that the final concentration of DMSO was 0.9%. All reactions were performed in polypropylene 384-well plates. Each was a final volume of 0.02 mL. The assay plates were incubated at room temperature with shaking for 1 hour and the affinity beads were washed with wash buffer (1×PBS, 0.05% Tween 20). The beads were then re-suspended in elution buffer (1×PBS, 0.05% Tween 20, 0.5 μM nonbiotinylated affinity ligand) and incubated at room temperature with shaking for 30 minutes. The kinase concentration in the eluates was measured by qPCR. Binding constants (Kds) were calculated with a standard dose-response curve using the Hill equation. The Hill Slope was set to −1. Curves were fitted using a non-linear least square fit with the Levenberg-Marquardt algorithm.
as §1, with “9-12” for “1-8”
Kinase-tagged T7 phage strains were prepared in an E. coli host derived from the BL21 strain. […]

pKd | SMILES
9.21 | COc1cn2ncc(-c3nc(N[C@H]4CNCC[C@@H]4F)c(F)cc3F)c2nc1C(C)(C)O [Compound 13, 2-(3-(3,5-difluoro-6-(((3S,4S)-4-fluoropiperidin-3-yl)amino)pyridin-2-yl)-6-methoxypyrazolo[1,5-a]pyrimidin-5-yl)propan-2-ol]
9.55 | COc1cn2ncc(-c3nc(N[C@H]4CNCC[C@@H]4F)c(C#N)cc3F)c2nc1C(C)(C)O [Compound 10, 5-fluoro-2-(((3S,4S)-4-fluoropiperidin-3-yl)amino)-6-(5-(2-hydroxypropan-2-yl)-6-methoxypyrazolo[1,5-a]pyrimidin-3-yl)nicotinonitrile]
> 9.77 | COc1cn2ncc(-c3nc(N[C@H]4CNCC[C@@H]4F)c(C#N)cc3F)c2nc1C1CC1 [Compound 7, 6-(5-cyclopropyl-6-methoxypyrazolo[1,5-a]pyrimidin-3-yl)-5-fluoro-2-(((3S,4S)-4-fluoropiperidin-3-yl)amino)nicotinonitrile]

same assay, conditions: Table 18; no ATP

pKd | SMILES
> 9.77 | COc1cn2ncc(-c3nc(N[C@@H]4CCCNC4)ncc3F)c2nc1C1CC1 [Compound 14a, (R)-4-(5-cyclopropyl-6-methoxypyrazolo[1,5-a]pyrimidin-3-yl)-5-fluoro-N-(piperidin-3-yl)pyrimidin-2-amine]
> 9.77 | COc1cn2ncc(-c3nc(N[C@H]4CNCC[C@@H]4F)ncc3F)c2nc1C1CC1 [Compound 15a, 4-(5-cyclopropyl-6-methoxypyrazolo[1,5-a]pyrimidin-3-yl)-5-fluoro-N-((3S,4S)-4-fluoropiperidin-3-yl)pyrimidin-2-amine]
> 9.77 | COc1cn2ncc(-c3cncc(N[C@H]4CNCC[C@@H]4F)n3)c2nc1C1CC1 [Compound 12a, 6-(5-cyclopropyl-6-methoxypyrazolo[1,5-a]pyrimidin-3-yl)-N-((3S,4S)-4-fluoropiperidin-3-yl)pyrazin-2-amine]
9.33 | COc1cn2ncc(-c3nc(N[C@H]4CNCC[C@@H]4F)ncc3F)c2nc1C(C)(C)O [Compound 6a, 2-(3-(5-fluoro-2-(((3S,4S)-4-fluoropiperidin-3-yl)amino)pyrimidin-4-yl)-6-methoxypyrazolo[1,5-a]pyrimidin-5-yl)propan-2-ol]
> 9.77 | COc1cn2ncc(-c3ccnc(N[C@H]4CNCC[C@@H]4F)n3)c2nc1C1CC1 [Compound 7a, 4-(5-cyclopropyl-6-methoxypyrazolo[1,5-a]pyrimidin-3-yl)-N-((3S,4S)-4-fluoropiperidin-3-yl)pyrimidin-2-amine]
